From article PMC8598068, “Flagellin lysine methyltransferase FliB catalyzes a [4Fe-4S] mediated methyl transfer reaction” (PLoS Pathogens, 2021)

Key:
[1] = target: T1, ftFliB (FleBt-FliB) (Salmonella enterica, UniProt Q56106); assay: biochemical
[2] = target: T1, ftFliB (FleBt-FliB); assay: UV-vis, EPR, […] Mössbauer, iron and sulfur content; type: binding; set-up: N-terminal His6 and Yersinia enterocolitica FleB residues 54-332 (FleBt) solubility tag kept, fused to FliB; E. coli BL21(DE3); ~76 kDa; about 14-mer; details: anaerobically reconstituted protein; CX4CX3CC motif
[3] = target: the molecule itself; assay: SEC-MALS; TSK-GEL BioAssist G4SWXL column, buffer A, 0.5 mL/min; MALS with RI and UV 280 nm detectors

## C[S+](CC[C@H](N)C(=O)O)C[C@H]1O[C@@H](n2cnc3c(N)ncnc32)[C@H](O)[C@@H]1O (stereo partly drawn) [SAM, S-adenosylmethionine]
[1]
  Kd: 10.5 ± 3.41 µM

## [S]12[Fe]3[S]4[Fe]1[S]1[Fe]2[S]3[Fe]41 [[4Fe-4S] cluster]
[2]
  UV-vis, EPR, 57Fe Mössbauer, iron and sulfur content: indicating the presence of one [4Fe-4S] cluster in FliB

B1: FleBt-FliB fusion protein (flagellin lysine methyltransferase FliB fused to the C-terminus of truncated FleB) (enzyme)
chain: MKEITVTEPAFVTRFSCSGSACRDHCCKGWKITLDKTTVKKYLASKDTTIRTIAQDHIILLKKNNSHWGEIKLPSALGNCPYLDEDRLCRVQKTLGAKALSHTCSSFPRAHHTYKNEVRNSLSLACPEVTSRILNDPDAMALSEKTIIQQTFNTAPLFPAQQKLLNLFCLSLINHANSSTEAALYALIKFVMYAQKFAKIDDAALGELEQVYAALLEQLQTGVLAQELMNIAPDSKVKTSLVLQMQDYFRSLPLNRGSVILDHYIQCLLRVLTAEEGVSMEQKVSDIESSLARCLQANEQQKNWAFRNLILYKIWENNFPNQPNVDPLRALYIIVAEYAFIKLLTAASVHERGRIEWDDVTNIVYSFHSRSQHNSEVAKNFHRHIETVRTGDDLSMIHLLT
notes: also called ftFliB; source: E. coli BL21 (DE3), purified (HisTrap HP, SEC); copies: 14
[3]
  stoichiometry N: ~14 subunits per oligomer
